Experimental data reported in patent US20090226952A1, “SCREENING METHOD FOR COMPOUNDS WITH A[…]” (Isis Innovation Limited, priority 2005, published 2009).
Entries after “also recorded” stand apart in the source; their conditions may differ.

Assays:
[1] = tested on: transient working neuronal assemblies in in vitro hippocampal slices; experiment: Optical imaging with voltage sensitive dye Di-4-ANEPPS (ΔF/F) of paired-pulse stimulated hippocampal slices; format: cell-based, rat; conditions: for effect on population activity / prolongation of activation of the neuronal assembly after the second pulse / time for which neurons remain activated / return to resting baseline after peak activation following the second stimulating pulse: optical imaging; for effect on population activity / prolongation of activation of the neuronal assembly after the second pulse: vs control ACSF; for time for which neurons remain activated / return to resting baseline after peak activation following the second stimulating pulse: morphine 10-100 μM, gabapentin 100-150 μM, thiopental 80-150 μM, propofol 10-50 μM, control returns within 60 ms; for optical ΔF/F peak 2 value vs control / optical ΔF/F peak 1 value vs control: paired t-test n=6; for time from peak to half peak activity, peak 2 (t3−t4), vs control: ΔF/F data
Description: (§1) In the study, collective synchronised neuronal activity, i.e. working neuronal assemblies^3, were recorded while monitoring in parallel the underlying synaptic electrical activity (FIG. 1a). Accordingly, the use of the voltage sensitive dye, Di-4-ANEPPS, was combined with standard electrophysiological field potential recordings to measure the excitatory post-synaptic potentials (EPSPs). Under control conditions in physiological saline, electrical stimuli in a paired-pulse paradigm^18 were applied to the Schaffer Collaterals of in vitro hippocampal slices.
(§2) Following terminal anaesthesia using halothane, 400 μm transverse hippocampal slices from 2 week Wistar rats were obtained and left to rest for one hour in a high humidity chamber with oxygenated artificial cerebrospinal fluid (ACSF) (in mM: 124 NaCl, 22 NaHCO3, 10 glucose, 5 KCl, 2 CaCl2, 1.25 MgSO4, 1.25 NaH2PO4) before being submersed in dye solution (4% dye stock solution (in mM: 0.2 mM Di-4-ANEPPS (Molecular Probes, Oregon, USA) in 2.7% ethanol, 0.13% Cremaphor EL), 48% fetal bovine serum and 24% ACSF and 24% ACSF cellulose) for 25 minutes followed by a further one hour rest in the humidity chamber with oxygenated ACSF.
(§3) Electrical stimulation (paired pulse 8-10V, 60 ms interval, 0.1 ms duration) was generated by an isolated stimulator (Digitimer Ltd, UK) via a bipolar electrode (FHC, Maine, USA) and positioned just above the CA3 region. In this way, paired pulses were applied along the Shaffer Collaterals so as to elicit a spreading depolarising wave that formed from the point of stimulation and moved along the pathway towards the CA1 region. A halogen lamp provided the excitatory wavelengths for the dye (through a λ=530±10 nm filter) while the emission was captured on a 2 mm×3 mm CCD sensor (MiCAM01, BrainVision, Tokyo, Japan) through an absorption filter (λ=590 nm). Optical recordings were acquired at a rate of 0.7 ms frame^−1 for 682 frames. 16 optical recordings were averaged for each experimental condition to reduce the effects of dye bleaching and increase the signal-to-noise ratio. Analysis included ΔF/F calculations and a 5×5×3 Gaussian matrix filter (BrainVision Analysis software and Igor Pro 5, Wavemetrics, USA). As indicated above, such optical imaging was combined with standard electrophysiological field potential recordings to measure the excitory post synaptic potentials (EPSPs). […] All statistical comparisons were performed using student t-test of paired samples, n=6; 95% confidence interval.

[2] = tested on: in vitro hippocampal slices (Schaffer Collaterals, excitatory post-synaptic potentials); experiment: Electrophysiological field potential (EPSP) recordings in paired-pulse stimulated hippocampal slices; format: cell-based, rat; conditions: for time from peak to half peak activity, peak 2 (t3−t4), vs control: EPSP data; for paired-pulse facilitation in EPSP recordings, treatment vs control / EPSP peak 1 value vs control / EPSP peak 2 value vs control: morphine 10-100 μM, gabapentin 100-150 μM, thiopental 80-150 μM, propofol 10-50 μM; for EPSP peak 1 value vs control / EPSP peak 2 value vs control: paired t-test n=6
Description: as §1, §2, §3

SMILES | effect on population activity / prolongation of activation of the neuronal assembly after the second pulse [1] | time for which neurons remain activated / return to resting baseline after peak activation following the second stimulating pulse [1] | optical ΔF/F peak 2 value vs control [1] | time from peak to half peak activity, peak 2 (t3−t4), vs control [1] | time from peak to half peak activity, peak 2 (t3−t4), vs control [2] | paired-pulse facilitation in EPSP recordings, treatment vs control [2] | EPSP peak 1 value vs control [2] | EPSP peak 2 value vs control [2] | paired-pulse facilitation in ΔF/F recordings, treatment vs control [1] | optical ΔF/F peak 1 value vs control [1]
NCC1(CC(=O)O)CCCCC1 [gabapentin] | not substantially altered; also recorded: no such effect | ≤ 60 ms | significant difference | no significant difference | no significant difference | no significant difference | not significantly changed | not significantly changed |  | 
CN1CC[C@]23c4c5ccc(O)c4O[C@H]2[C@@H](O)C=C[C@H]3[C@H]1C5 [morphine] |  | ≤ 60 ms |  |  |  |  |  |  |  | 
CC(C)c1cccc(C(C)C)c1O [propofol, 2,6-diisopropylphenol] | prolonged activation |  | significant reduction | very highly significant differences | low statistical difference | did not significantly differ | significantly reduced | significantly reduced | did not significantly change | did not differ significantly
CCCC(C)C1(CC)C(=O)NC(=S)NC1=O (stereo not shown) [thiopental, 5-ethyl-5-(1-methylbutyl)-2-thiobarbituricacid] | prolonged activation | up to 500 ms | significant reduction | highly significant | no significant change | abolished | significantly reduced | significantly reduced | abolished | did not differ significantly
